Measurements reported in patent US20100105729A1, “ARYL-SUBSTITUTED HETEROCYCLIC PDE4 INHIBITORS AS ANTI-INFLAMMATORY AGENTS” (KALYPSYS, INC., priority 2006, published 2010).

Tested on: PDE4
Test: PDE4 Cellular CNG Assay
Type: cell-based
Details: HEK293 cells stably expressing the CNG channel
From the text: Compounds may be screened for functional potency in in vitro cellular assays for their ability to inhibit the activity of phosphodiesterase (PDE) enzymes. A commercial membrane potential assay, Molecular Device's membrane potential assay kit, was modified and utilized to measure the inhibitory activity of compounds on PDE isoforms in living cells. The cellular assay utilizes genetically engineered cyclic nucleotide-gated (CNG) channels as cyclic-AMP (cAMP) sensors. On binding cAMP these ion channels open, allowing the flow of cations across the plasma membrane. CNG channel activity can be monitored by measuring Ca^2+influx in cell populations. The influx of Ca causes a change in membrane potential that is measured by voltage sensitive dyes. PDE inhibitors prevent the degradation of cAMP that is generated by adenylyl cyclases that are activated upon stimulation of G protein-coupled receptors (GPCR) linked to the cAMP pathway. In brief, Molecular Device's membrane potential dye was added to HEK293 cells stably expressing the CNG channel and incubated for 2 hours at room temperature. Test compounds were then added to the cells and incubated for 15 minutes. A GPCR agonist was then added to the cells to stimulate the cAMP pathway and incubated for 45 minutes. Fluorescent measurements were then conducted with either the Molecular Devices Acquest or Analyst. PDE inhibitors will inhibit the degradation of cAMP and cause an increase in fluorescent signal. Roflumilast and Rolipram are the positive controls used in the assay.

Structure (SMILES)	PDE4 Cellular CNG Assay Activity at 10 μM
COc1ccc(C2=NN(C(=O)c3ccccc3Cl)C(c3ccc(F)cc3)C2)cc1OC (stereo not shown) [Example 31, (2-chlorophenyl)(3-(3,4-dimethoxyphenyl)-5-(4-fluorophenyl)-4,5-dihydro-1H-pyrazol-1-yl)methanone]	+ (+ indicates Activity ≧50% at 10 μM)
COc1ccc(C2=NN(C(=O)c3cccs3)C(c3ccccc3F)C2)cc1OC (stereo not shown) [Example 40, (3-(3,4-dimethoxyphenyl)-5-(2-fluorophenyl)-4,5-dihydro-1H-pyrazol-1-yl)(thiophen-2-yl)methanone]	− (− indicates Activity <50% at 10 μM)
COc1ccc(C2=NN(C(=O)c3cc(OC)c(OC)c(OC)c3)C(c3ccc(F)cc3)C2)cc1OC (stereo not shown) [Example 42, (3-(3,4-dimethoxyphenyl)-5-(4-fluorophenyl)-4,5-dihydro-1H-pyrazol-1-yl)(3,4,5-trimethoxyphenyl)methanone]	+ (+ indicates Activity ≧50% at 10 μM)
COc1ccc(C2=NN(C(=O)c3cc(OC)c(OC)c(OC)c3)C(c3cccc([N+](=O)[O-])c3)C2)cc1OC (stereo not shown) [Example 77, (3-(3,4-dimethoxyphenyl)-5-(3-nitrophenyl)-4,5-dihydro-1H-pyrazol-1-yl)(3,4,5-trimethoxyphenyl)methanone]	+ (+ indicates Activity ≧50% at 10 μM)

Target: T1, PDE4B (Homo sapiens, UniProt Q07343)
T1 construct: hexa-histidine (His6) (N); made in house
T1 sequence (Q07343 330-659 limits assumed, species assumed): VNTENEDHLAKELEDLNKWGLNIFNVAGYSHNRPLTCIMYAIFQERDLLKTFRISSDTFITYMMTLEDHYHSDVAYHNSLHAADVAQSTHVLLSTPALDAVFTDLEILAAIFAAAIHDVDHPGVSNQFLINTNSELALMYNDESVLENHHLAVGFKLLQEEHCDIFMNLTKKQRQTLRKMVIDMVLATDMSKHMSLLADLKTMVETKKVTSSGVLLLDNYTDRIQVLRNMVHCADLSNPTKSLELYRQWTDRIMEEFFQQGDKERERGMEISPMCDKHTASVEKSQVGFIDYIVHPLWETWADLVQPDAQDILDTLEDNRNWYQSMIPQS
Test: PDE4 IMAP Assay
Type: biochemical
Details: catalytic domain of PDE4B, fluorescence polarization
How it was run: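 His-tagged PDE4B catalytic domain was preincubated with compound for 10 min, then given fluorescent cAMP substrate for 2 h at room temperature. IMAP binding reagent was added for 10–30 min to capture the nucleotide monophosphate product, and fluorescence polarization was read.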

inhibition at 10 µM [%]	Structure (SMILES)
< 50	COc1ccc(C2=NN(C(=O)CCC(=O)O)C(c3ccccc3OC)C2)cc1OC (stereo not shown) [Example 98, 4-(3-(3,4-dimethoxyphenyl)-5-(2-methoxyphenyl)-4,5-dihydro-1H-pyrazol-1-yl)-4-oxobutanoic acid]
< 50	COc1ccc(C2=NN(C(=O)CCC(=O)O)C(c3ccccc3)C2)cc1OC (stereo not shown) [Example 99, 4-(3-(3,4-dimethoxyphenyl)-5-phenyl-4,5-dihydro-1H-pyrazol-1-yl)-4-oxobutanoic acid]
< 50	COc1ccc(C2=NN(C(C)=O)C(c3ccc(OC)c(OC)c3)C2)cc1OC (stereo not shown) [Example 100, 1-(3,5-bis(3,4-dimethoxyphenyl)-4,5-dihydro-1H-pyrazol-1-yl)ethanone]
< 50	COc1ccc(C2=NN(C(C)=O)C(c3cccc(OC)c3OC)C2)cc1OC (stereo not shown) [Example 101, 1-(5-(2,3-dimethoxyphenyl)-3-(3,4-dimethoxyphenyl)-4,5-dihydro-1H-pyrazol-1-yl)ethanone]
≥ 50	COc1ccc(C2=NN(C(C)=O)C(c3ccc(F)cc3)C2)cc1OC (stereo not shown) [Example 102, 1-(3-(3,4-dimethoxyphenyl)-5-(4-fluorophenyl)-4,5-dihydro-1H-pyrazol-1-yl)ethanone]
< 50	COc1ccc(C2CC(c3ccc(OC)c(OC)c3)=NN2C(C)=O)cc1 (stereo not shown) [Example 103, 1-(3-(3,4-dimethoxyphenyl)-5-(4-methoxyphenyl)-4,5-dihydro-1H-pyrazol-1-yl)ethanone]
< 50	COc1ccc(C2=NN(C(C)=O)C(c3ccccc3F)C2)cc1OC (stereo not shown) [Example 104, 1-(3-(3,4-dimethoxyphenyl)-5-(2-fluorophenyl)-4,5-dihydro-1H-pyrazol-1-yl)ethanone]
< 50	COc1ccc(C2=NN(C(C)=O)C(c3ccccc3OC)C2)cc1OC (stereo not shown) [Example 105, 1-(3-(3,4-dimethoxyphenyl)-5-(2-methoxyphenyl)-4,5-dihydro-1H-pyrazol-1-yl)ethanone]
< 50	COc1ccc(C2=NN(C(C)=O)C(c3ccccc3)C2)cc1OC (stereo not shown) [Example 106, 1-(3-(3,4-dimethoxyphenyl)-5-phenyl-4,5-dihydro-1H-pyrazol-1-yl)ethanone]

Continued, compound first:

Structure (SMILES)	inhibition at 10 µM [%]
COc1ccc(C2=NN(C(=O)c3ccccc3Cl)C(c3ccc(F)cc3)C2)cc1OC (stereo not shown) [Example 31, (2-chlorophenyl)(3-(3,4-dimethoxyphenyl)-5-(4-fluorophenyl)-4,5-dihydro-1H-pyrazol-1-yl)methanone]	≥ 50
COc1ccc(C2=NN(C(=O)c3cccs3)C(c3ccccc3F)C2)cc1OC (stereo not shown) [Example 40, (3-(3,4-dimethoxyphenyl)-5-(2-fluorophenyl)-4,5-dihydro-1H-pyrazol-1-yl)(thiophen-2-yl)methanone]	≥ 50
COc1ccc(C2=NN(C(=O)c3cc(OC)c(OC)c(OC)c3)C(c3ccc(F)cc3)C2)cc1OC (stereo not shown) [Example 42, (3-(3,4-dimethoxyphenyl)-5-(4-fluorophenyl)-4,5-dihydro-1H-pyrazol-1-yl)(3,4,5-trimethoxyphenyl)methanone]	≥ 50
COc1ccc(C2=NN(C(=O)c3cc(OC)c(OC)c(OC)c3)C(c3cccc([N+](=O)[O-])c3)C2)cc1OC (stereo not shown) [Example 77, (3-(3,4-dimethoxyphenyl)-5-(3-nitrophenyl)-4,5-dihydro-1H-pyrazol-1-yl)(3,4,5-trimethoxyphenyl)methanone]	≥ 50
COc1ccc(OC)c(C2CC(c3ccc(OC)c(OC)c3)=NN2S(=O)(=O)c2ccccc2)c1 (stereo not shown) [Example 88, 5-(2,5-dimethoxyphenyl)-3-(3,4-dimethoxyphenyl)-1-(phenylsulfonyl)-4,5-dihydro-1H-pyrazole]	< 50
COc1ccc(OC)c(C2CC(c3ccc(OC)c(OC)c3)=NN2S(=O)(=O)c2ccc(C)cc2)c1 (stereo not shown) [Example 89, 5-(2,5-dimethoxyphenyl)-3-(3,4-dimethoxyphenyl)-1-tosyl-4,5-dihydro-1H-pyrazole]	< 50
COc1ccc(C2=NN(S(=O)(=O)c3ccccc3)C(c3cccc(OC)c3OC)C2)cc1OC (stereo not shown) [Example 90, 5-(2,3-dimethoxyphenyl)-3-(3,4-dimethoxyphenyl)-1-(phenylsulfonyl)-4,5-dihydro-1H-pyrazole]	< 50
COc1ccc(C2=NN(S(=O)(=O)c3ccc(C)cc3)C(c3cccc(OC)c3OC)C2)cc1OC (stereo not shown) [Example 91, 5-(2,3-dimethoxyphenyl)-3-(3,4-dimethoxyphenyl)-1-tosyl-4,5-dihydro-1H-pyrazole]	< 50
COc1ccc(C2CC(c3ccc(OC)c(OC)c3)=NN2S(=O)(=O)c2ccc(C)cc2)cc1 (stereo not shown) [Example 92, 3-(3,4-dimethoxyphenyl)-5-(4-methoxyphenyl)-1-tosyl-4,5-dihydro-1H-pyrazole]	< 50
COc1ccc(C2=NN(S(=O)(=O)c3ccc(C)cc3)C(c3ccccc3OC)C2)cc1OC (stereo not shown) [Example 93, 3-(3,4-dimethoxyphenyl)-5-(2-methoxyphenyl)-1-tosyl-4,5-dihydro-1H-pyrazole]	< 50
COc1ccc(C2=NN(C(=O)CCCC(=O)O)C(c3cccc(OC)c3OC)C2)cc1OC (stereo not shown) [Example 94, 5-(5-(2,3-dimethoxyphenyl)-3-(3,4-dimethoxyphenyl)-4,5-dihydro-1H-pyrazol-1-yl)-5-oxopentanoic acid]	< 50
COc1ccc(C2=NN(C(=O)CCCC(=O)O)C(c3ccc(Cl)cc3)C2)cc1OC (stereo not shown) [Example 95, 5-(5-(4-chlorophenyl)-3-(3,4-dimethoxyphenyl)-4,5-dihydro-1H-pyrazol-1-yl)-5-oxopentanoic acid]	< 50
COc1ccc(C2=NN(C(=O)CCCC(=O)O)C(c3ccc(C)cc3)C2)cc1OC (stereo not shown) [Example 96, 5-(3-(3,4-dimethoxyphenyl)-5-p-tolyl-4,5-dihydro-1H-pyrazol-1-yl)-5-oxopentanoic acid]	< 50
COc1ccc(C2CC(c3ccc(OC)c(OC)c3)=NN2C(=O)CCC(=O)O)cc1 (stereo not shown) [Example 97, 4-(3-(3,4-dimethoxyphenyl)-5-(4-methoxyphenyl)-4,5-dihydro-1H-pyrazol-1-yl)-4-oxobutanoic acid]	< 50

Tested on: recombinant human PDE4
Test: not given
Details: reported value; read-out: IC50 with respect to inhibiting recombinant human PDE4; cited from earlier work

Structure (SMILES)	IC50 [nM]
COc1ccc(C2CNC(=O)C2)cc1OC1CCCC1 (stereo not shown) [rolipram]	~200
